Data on five compounds can be found in patent US11643438B2, “Antimicrobial peptides and methods of use” (priority 2018, dated 2023).

Converted amounts (≈) assume the structure as drawn. “Also recorded” adds a separate entry of the source. Like-named read-outs stand apart in the source and are kept apart here.

In assay [1] the test system is Paecilomyces lilacinus 165E10. Description: Antifungal MIC80/MFC assay, fungal pathogen panel. To be noted: Purpureocillium lilacinum, 165E10.
In assay [2] the test system is Candida albicans ATCC 10231. The assay is described as follows: Antifungal MIC80/MFC assay, fungal pathogen panel. Conditions: ATCC10231.
The subject of assay [3] is Hamigera insecticola NRRL35442. Description: Antifungal MIC80/MFC assay, fungal pathogen panel.
Assay [4] relates to Aspergillus fumigatus NRRL5109. Description: Antifungal MIC80/MFC assay, fungal pathogen panel.
Assay [5] relates to Candida parapsilosis ATCC 22019 (Y-12969). The assay is described as follows: Antifungal MIC80/MFC assay, fungal pathogen panel. Conditions: Lodderomyces parapsilosis, ATCC22019.
Assay [6] relates to Candida krusei ATCC 6258 (Y-7179). The assay is described as follows: Antifungal MIC80/MFC assay, fungal pathogen panel. To be noted: Pichia kudriavzevii, ATCC6258.
Assay [7] has as its system Cryptococcus neoformans H99. Description: Antifungal MIC80/MFC assay, fungal pathogen panel.
Assay [8] concerns Aspergillus fumigatus MYA 3627. The assay is described as follows: Antifungal MIC80/MFC assay, fungal pathogen panel. To be noted: MYA3627.
Assay [9] relates to Candida tropicalis ATCC750 (Y-12699). The assay is described as follows: Antifungal MIC80/MFC assay, fungal pathogen panel. Conditions: Candida tropicalis, ATCC750.
The test system of assay [10] is Aspergillus terreus 191A6. The assay is described as follows: Antifungal MIC80/MFC assay, fungal pathogen panel.
Assay [11] has as its system Aspergillus flavus NRRL485. The assay is described as follows: Antifungal MIC80/MFC assay, fungal pathogen panel.
Assay [12] has as its system Aspergillus fumigatus NRRL6113. The assay is described as follows: Antifungal MIC80/MFC assay, fungal pathogen panel.
Assay [13] relates to Aspergillus niger FGSC A732. Description: Antifungal MIC80/MFC assay, fungal pathogen panel. Conditions: Aspergillus niger, FGSCA732.
Assay [14] has as its system Rhizopus oryzae FGSC 9543. The assay is described as follows: Antifungal MIC80/MFC assay, fungal pathogen panel. To be noted: Rhizopus arrhizus, FGSC9543.
The next assay deals with Fusarium solani 243G2. Description: Antifungal MIC80/MFC assay, fungal pathogen panel.
Assay [15] deals with Candida albicans SC5314. Description: Antifungal MIC80/MFC assay, fungal pathogen panel.
Assay [16] has as its system Mucor circinelloides 235C7. The assay is described as follows: Antifungal MIC80/MFC assay, fungal pathogen panel.
Assay [17] concerns Curvularia lunata NRRL6409. The assay is described as follows: Antifungal MIC80/MFC assay, fungal pathogen panel.
The test system of assay [18] is Aspergillus fumigatus NRRL5109. Description: Ex vivo model of fungal keratitis (porcine cornea). To be noted: for antifungal activity (fungal growth/infection), in words: Aspergillus fumigatus NRRL 5109, 0.1% 118A, 2% fluconazole, 5% natamycin, FIG. 13; for CFU: Aspergillus fumigatus NRRL5109, 118A 0.1% (1 mg/ml), natamycin 5% (50 mg/ml), fluconazole 2% (20 mg/ml).
Another assay relates to C. albicans SC5314 Flu^R. Description: Ex vivo model of fungal keratitis (porcine cornea). More on the design: species or system Candida albicans. Conditions: C. albicans SC5314 Flu^R; 118A 0.1% (1 mg/ml), natamycin 5% (50 mg/ml), fluconazole 2% (20 mg/ml).
Assay [19] has as its system Candida albicans SC5314. Description: Ex vivo model of fungal keratitis (porcine cornea). Conditions: for antifungal activity (fungal growth/infection), in words: 0.1% 118A, 2% fluconazole, 5% natamycin, FIG. 11; for CFU: 118A 0.1% (1 mg/ml), natamycin 5% (50 mg/ml), fluconazole 2% (20 mg/ml).
Another assay concerns Nodulosporium spp. The assay is described as follows: MIC/MFC against phytopathogenic (endophytic) fungi.
For the next assay, the system named is Fusarium oxysporum. The assay is described as follows: MIC/MFC against phytopathogenic (endophytic) fungi.
Another assay deals with Fusarium tricinctum. Description: MIC/MFC against phytopathogenic (endophytic) fungi.
The next assay has as its system Alternaria tennuissiema. The assay is described as follows: MIC/MFC against phytopathogenic (endophytic) fungi.
The test system of a further assay is Mycosphaerella populorum. The assay is described as follows: MIC/MFC against phytopathogenic (endophytic) fungi. To be noted: Sphaerulina musiva.
The subject of the next assay is Alternaria brassicae. The assay is described as follows: MIC/MFC against phytopathogenic (endophytic) fungi.
The test system of another assay is Alternaria brassicicola. The assay is described as follows: MIC/MFC against phytopathogenic (endophytic) fungi.
Another assay concerns P. glomerata. The assay is described as follows: MIC/MFC against phytopathogenic (endophytic) fungi.

Broadly, the MFC is the smallest concentration meeting the test's criterion for killing the fungus. Low values mean more potent killing, high ones less potent killing. The MIC80 is the lowest concentration that inhibits either 80% of growth or 80% of the strains tested, depending on the study. For the compound `CC[C@H](C)C[C@H](C)CCCCCCCCC(=O)N[C@H]1C[C@@H](O)[C@@H](NCCN)NC(=O)[C@@H]2[C@@H](O)CCN2C(=O)[C@H]([C@H](O)CCN)NC(=O)[C@H]([C@H](O)[C@@H](O)c2ccc(O)cc2)NC(=O)[C@@H]2C[C@@H](O)CN2C(=O)[C@H]([C@@H](C)O)NC1=O` [CASP, caspofungin], the MFC is above 10 µM in [1]; 5 µM (≈ 5.47 µg/mL) in assay [2]; above 10 µM in assay [3]; above 10 µM in [4]; 1.25 µM (≈ 1.37 µg/mL) in assay [5]; 0.3 µM (≈ 0.328 µg/mL) in assay [6]. Also, the minimal fungicidal concentration (MFC) in [7] was above 10 µM; in assay [8] it was above 10 µM; in assay [9], 0.15 µM (≈ 0.164 µg/mL); in assay [10], above 10 µM; in assay [11] it was above 10 µM; in assay [12], above 10 µM. In addition, the minimal fungicidal concentration (MFC) was above 10 µM in [13]; above 10 µM in assay [14]; above 10 µM in the assay with Fusarium solani 243G2; 0.625 µM (≈ 0.683 µg/mL) against Candida albicans SC5314 [15]; above 10 µM in [16]; 5 µM (≈ 5.47 µg/mL) in [17]. The MIC80 in assay [1] was above 10 µM; in assay [2] it was 0.03 µM (≈ 0.0328 µg/mL); in [3], 0.06 µM (≈ 0.0656 µg/mL); in assay [4], above 10 µM; in assay [5], 0.3 µM (≈ 0.328 µg/mL); in assay [6], 0.15 µM (≈ 0.164 µg/mL). The MIC80 in assay [7] is above 10 µM; in assay [8] it was 0.07 µM (≈ 0.0765 µg/mL); in assay [9], 0.03 µM (≈ 0.0328 µg/mL); in assay [10], 0.125 µM (≈ 0.137 µg/mL); in assay [11], above 10 µM; in assay [12], above 10 µM. The MIC80 in [13] is 0.06 µM (≈ 0.0656 µg/mL); in [14] it was above 10 µM; against Fusarium solani 243G2, 0.15 µM (≈ 0.164 µg/mL); in the assay with Candida albicans SC5314 [15] it was 0.03 µM (≈ 0.0328 µg/mL); in assay [16], above 10 µM; in assay [17], 5 µM (≈ 5.47 µg/mL).
Take `OC(Cn1cncn1)(Cn1cncn1)c1ccc(F)cc1F` [Fluconazole, fluconazole]: the “antifungal activity (fungal growth/infection), in words” value in assay [18] is on record as “did not inhibit the growth”; in assay [18] (listed as fluconazole), “unable to fully inhibit the fungus”; with Candida albicans SC5314 [19] it was “reduced the infection”. Moreover, the CFU in assay [18] was 2.0 ± 1.0 × 10^4 CFU; in the assay with C. albicans SC5314 Flu^R, 2.2 ± 0.9 × 10^5 CFU; with Candida albicans SC5314 [19], 13.7 ± 19.3 CFU.
One may read the MIC as the lowest concentration that inhibits growth of the organism. Regarding `N#Cc1c[nH]cc1-c1cccc2c1OC(F)(F)O2` [Fludioxonil, fludioxonil], the minimal fungicidal concentration (MFC) in the assay on Nodulosporium spp. is above 20 µM; with Fusarium oxysporum it was above 20 µM; against Fusarium tricinctum, above 20 µM; against Alternaria tennuissiema, 1.25 µM (≈ 0.31 µg/mL); with Mycosphaerella populorum it was above 20 µM; against Alternaria brassicae it was 2.5 µM (≈ 0.62 µg/mL). Also, the MFC in the assay with Alternaria brassicicola and in the assay on P. glomerata was above 20 µM throughout. In addition, the MIC against Nodulosporium spp. amounted to 0.625 µM (≈ 0.155 µg/mL); with Fusarium oxysporum, 5 µM (≈ 1.24 µg/mL); against Fusarium tricinctum, 1.25 µM (≈ 0.31 µg/mL); with Alternaria tennuissiema, 1.25 µM (≈ 0.31 µg/mL); in the assay with Mycosphaerella populorum it was 1.25 µM (≈ 0.31 µg/mL); against Alternaria brassicae, 0.625 µM (≈ 0.155 µg/mL). Also, the minimal inhibitory concentration (MIC) in the assay on Alternaria brassicicola is 1.25 µM (≈ 0.31 µg/mL); in the assay with P. glomerata it was above 20 µM; against P. glomerata (P. glomerata, […]), “no activity in the range tested”.
Regarding `CCC(C)n1ncn(-c2ccc(N3CCN(c4ccc(OCC5COC(Cn6cncn6)(c6ccc(Cl)cc6Cl)O5)cc4)CC3)cc2)c1=O` (stereo not shown) [ITC, itraconazole], the MFC in assay [1] is 1.25 µM (≈ 0.882 µg/mL); in assay [2], above 10 µM; in assay [3], 1.25 µM (≈ 0.882 µg/mL); in assay [4], 10 µM (≈ 7.06 µg/mL); in [5], 5 µM (≈ 3.53 µg/mL); in assay [6], 2.5 µM (≈ 1.76 µg/mL). In addition, the minimum fungicidal concentration (MFC) was above 10 µM in [7]; above 10 µM in assay [8]; above 10 µM in assay [9]; 2.5 µM (≈ 1.76 µg/mL) in assay [10]; 0.6 µM (≈ 0.423 µg/mL) in assay [11]; above 10 µM in assay [12]. For the same compound, the minimum fungicidal concentration (MFC) is 5 µM (≈ 3.53 µg/mL) in assay [13]; 0.6 µM (≈ 0.423 µg/mL) in assay [14]; 5 µM (≈ 3.53 µg/mL) against Fusarium solani 243G2; above 10 µM against Candida albicans SC5314 [15]; above 10 µM in assay [16]; 5 µM (≈ 3.53 µg/mL) in assay [17]. Also, the MIC80 in assay [1] stood at 2.5 µM (≈ 1.76 µg/mL); in assay [2] it was 0.06 µM (≈ 0.0423 µg/mL); in assay [3] it was 0.3 µM (≈ 0.212 µg/mL); in assay [4], 1.25 µM (≈ 0.882 µg/mL); in assay [5], 0.6 µM (≈ 0.423 µg/mL); in assay [6], 0.6 µM (≈ 0.423 µg/mL). In addition, the MIC80 in [7] turned out to be 0.6 µM (≈ 0.423 µg/mL); in [8] it was 5 µM (≈ 3.53 µg/mL); in [9], 0.6 µM (≈ 0.423 µg/mL); in [10], 0.6 µM (≈ 0.423 µg/mL); in [11], 0.15 µM (≈ 0.106 µg/mL); in [12], 1.25 µM (≈ 0.882 µg/mL). Further, the MIC80 in assay [13] was 2.5 µM (≈ 1.76 µg/mL); in assay [14], 0.6 µM (≈ 0.423 µg/mL); against Fusarium solani 243G2, 2.5 µM (≈ 1.76 µg/mL); in the assay on Candida albicans SC5314 [15], 0.125 µM (≈ 0.0882 µg/mL); in assay [16] it was 10 µM (≈ 7.06 µg/mL); in assay [17], 2.5 µM (≈ 1.76 µg/mL).
On to `C[C@@H]1C/C=C/C=C/C=C/C=C/[C@H](O[C@@H]2O[C@H](C)[C@@H](O)[C@H](N)[C@@H]2O)C[C@@H]2O[C@](O)(C[C@@H](O)C[C@H]3O[C@@H]3/C=C/C(=O)O1)C[C@H](O)[C@H]2C(=O)O` [Natamycin, natamycin], for which the “antifungal activity (fungal growth/infection), in words” value in assay [18] is reported as “inhibited the growth; also recorded: reduced the fungal burden”; in the assay on Candida albicans SC5314 [19], “inhibited the growth; also recorded: reduced the infection”. For the same compound, the CFU (in assay [18]; with C. albicans SC5314 Flu^R; in the assay on Candida albicans SC5314 [19]) was 0 CFU throughout.
